Read-outs that look alike come from different tables or passages of the source.
Target: SIK2 (Homo sapiens, UniProt Q9H0K1)
Experiment: SIK2 Enzymatic Assay High Version 2 (High ATP)
Format: biochemical
Outline: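 At room temperature, enzyme (6 nM, 2× final) was preincubated with compound for 30 min, then 6 mM ATP and 400 μM HDAC5tide (both 2× final) were added for 2 h. ADP formed was measured by ADP-Glo Max (2 h reagent, 1 h detection) using luminescence.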

[1] = enzyme 6 nM, 6 mM ATP and 400 μM HDAC5tide (each 2× final concentration), 30 minutes pre-incubation, 2 hours, ADP-Glo Max luminescence, read-out: SIK2 high ATP IC50 (μM) (Test Example 2)

Chain of SIK2 (Q9H0K1 whole entry, species assumed): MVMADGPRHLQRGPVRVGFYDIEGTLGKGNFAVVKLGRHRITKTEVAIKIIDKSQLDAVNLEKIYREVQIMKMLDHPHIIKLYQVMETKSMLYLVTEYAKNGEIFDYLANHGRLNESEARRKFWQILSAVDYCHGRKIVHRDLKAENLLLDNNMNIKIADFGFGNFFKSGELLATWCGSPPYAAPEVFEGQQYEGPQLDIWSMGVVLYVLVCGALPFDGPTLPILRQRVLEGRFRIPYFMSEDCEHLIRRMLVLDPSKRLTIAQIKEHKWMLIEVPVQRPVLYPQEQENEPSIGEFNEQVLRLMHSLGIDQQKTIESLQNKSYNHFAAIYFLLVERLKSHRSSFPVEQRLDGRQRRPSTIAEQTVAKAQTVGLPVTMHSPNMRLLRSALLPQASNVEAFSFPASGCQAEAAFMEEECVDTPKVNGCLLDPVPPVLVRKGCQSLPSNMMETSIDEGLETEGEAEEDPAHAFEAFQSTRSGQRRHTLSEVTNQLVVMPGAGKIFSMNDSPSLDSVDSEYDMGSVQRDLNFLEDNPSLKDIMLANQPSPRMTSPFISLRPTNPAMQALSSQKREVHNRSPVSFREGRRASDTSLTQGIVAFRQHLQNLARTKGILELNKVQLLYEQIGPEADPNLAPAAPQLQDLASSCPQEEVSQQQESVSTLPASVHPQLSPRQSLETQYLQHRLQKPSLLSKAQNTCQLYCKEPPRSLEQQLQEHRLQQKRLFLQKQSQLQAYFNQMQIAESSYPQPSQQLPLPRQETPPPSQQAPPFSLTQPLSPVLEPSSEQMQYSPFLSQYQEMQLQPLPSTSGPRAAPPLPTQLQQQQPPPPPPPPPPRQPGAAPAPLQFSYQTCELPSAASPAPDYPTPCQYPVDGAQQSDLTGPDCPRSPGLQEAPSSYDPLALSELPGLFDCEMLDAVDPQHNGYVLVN

Row | IC50 [1] [µM] | SMILES | IC50 [µM]
1 | 0.0128 | Cc1cc(-c2ccn3nc(Nc4cccnn4)cc3c2)c(OC[C@@H]2CNCCO2)cn1 [Example 134, 5-[2-methyl-5-[[(2S)-morpholin-2-yl]methoxy]-4-pyridyl]-N-pyridazin-3-yl-pyrazolo[1,5-a]pyridin-2-amine] | 
2 | 0.0749 | Cc1cc(Nc2cc3cc(-c4cc(OCC(F)(F)F)ncc4OCC(C)(C)O)ccn3n2)nc(C)n1 [Example 661, 1-[[4-[2-[(2,6-dimethylpyrimidin-4-yl)amino]pyrazolo[1,5-a]pyridin-5-yl]-6-(2,2,2-trifluoroethoxy)-3-pyridyl]oxy]-2-methyl-propan-2-ol] | 
3 |  | Cc1cc(-c2ccn3nc(Nc4cccc(C(F)(F)F)n4)cc3c2)c(O[C@H]2C[C@H]3COC[C@@H](C2)N3)cn1 [Example 366, 5-[2-methyl-5-[[(1S,5R, 7s)-3-oxa-9-azabicyclo[3.3.1]nonan-7-yl]oxy]-4-pyridyl]-N-[6-(trifluoromethyl)-2-pyridyl]pyrazolo[1,5-a]pyridin-2-amine] | 0.00156
4 | 0.00251 | Cc1cc(-c2ccn3nc(NC(=O)C4CC4)cc3c2)c(O[C@H]2CC[C@@](O)(C(F)(F)F)CC2)cn1 [Example 191, N-(5-(5-(((1r,4r)-4-hydroxy-4-(trifluoromethyl)cyclohexyl)oxy)-2-methylpyridin-4-yl)pyrazolo[1,5-a]pyridin-2-yl)cyclopropanecarboxamide] | 
5 | 0.0118 | CC(C)(C#N)COc1cnc(OC(F)F)cc1-c1ccn2nc(Nc3cc4c(cn3)CNCC4)cc2c1 [Example 716, 3-[[6-(difluoromethoxy)-4-[2-(5,6,7,8-tetrahydro-2,7-naphthyridin-3-ylamino)pyrazolo[1,5-a]pyridin-5-yl]-3-pyridyl]oxy]-2,2-dimethyl-propanenitrile] | 
6 |  | Cc1cc(-c2ccn3nc(NC(=O)C4CC4)cc3c2)c(O[C@H]2C[C@@](C)(N)C2)cn1 [Example 517, N-[5-[5-(3-amino-3-methyl-cyclobutoxy)-2-methyl-4-pyridyl]pyrazolo[1,5-a]pyridin-2-yl]cyclopropanecarboxamide] | 0.016
7 | 0.00712 | CCn1nc(Nc2cc3cc(-c4cc(C)ncc4OCC(C)(C)O)ccn3n2)cc(C)c1=O [Example 247, 2-ethyl-6-[[5-[5-(2-hydroxy-2-methyl-propoxy)-2-methyl-4-pyridyl]pyrazolo[1,5-a]pyridin-2-yl]amino]-4-methyl-pyridazin-3-one] | 
8 |  | CNC(=O)c1ccnc(Nc2cc3cc(-c4cc(C)ncc4O[C@H]4C[C@H]5COC[C@@H](C4)N5C)ccn3n2)c1 [Example 409, N-methyl-2-[[5-[2-methyl-5-[[(1S,5R,7s)-9-methyl-3-oxa-9-azabicyclo[3.3.1]nonan-7-yl]oxy]-4-pyridyl]pyrazolo[1,5-a]pyridin-2-yl]amino]pyridine-4-carboxamide] | < 0.000847
9 | 0.00378 | Cc1cc(-c2ccn3nc(NC(=O)C4CC4)cc3c2)c(O[C@H]2CC[C@](C)(O)CC2)cn1 [Example 151, trans-N-(5-(5-(((1r,4r)-4-hydroxy-4-methylcyclohexyl)oxy)-2-methylpyridin-4-yl)pyrazolo[1,5-a]pyridin-2-yl)cyclopropanecarboxamide] | 
10 | 0.0037 | CO[C@@]1(COc2cnc(C)cc2-c2ccn3nc(NC(=O)C4CC4)cc3c2)CCNC1 (single isomer, unassigned) [Example 215, (*S)—N-[5-[5-[(3-methoxypyrrolidin-3-yl)methoxy]-2-methyl-4-pyridyl]pyrazolo[1,5-a]pyridin-2-yl]cyclopropanecarboxamide] | 
11 | 0.0234 | COc1ccccc1COc1cnc(C)cc1-c1ccn2nc(Nc3cc(C)nc(C)n3)cc2c1 [Example 271, N-(2,6-dimethylpyrimidin-4-yl)-5-[5-[(2-methoxyphenyl)methoxy]-2-methyl-4-pyridyl]pyrazolo[1,5-a]pyridin-2-amine] | 
12 | 0.203 | Cc1cc(-c2ccn3nc(NC(=O)C4CC4)cc3c2)c(OC[C@@]2(C)CCN2C)cn1 (single isomer, unassigned) [Example 604, (*R)—N-[5-[5-[(1,2-dimethylazetidin-2-yl)methoxy]-2-methyl-4-pyridyl]pyrazolo[1,5-a]pyridin-2-yl]cyclopropanecarboxamide] | 
13 |  | CNC(=O)c1ccc(Nc2cc3cc(-c4cc(C)ncc4O[C@H]4C[C@H]5COC[C@@H](C4)N5C(C)C)ccn3n2)nc1 [Example 531, 6-[[5-[5-[[(1S,5R)-9-isopropyl-3-oxa-9-azabicyclo[3.3.1]nonan-7-yl]oxy]-2-methyl-4-pyridyl]pyrazolo[1,5-a]pyridin-2-yl]amino]-N-methyl-pyridine-3-carboxamide] | 0.00144
14 | 0.0317 | Cc1cc(Nc2cc3cc(-c4cc(O[C@H](C)C#N)ncc4OCC(C)(C)C#N)ccn3n2)nc(C)n1 (single isomer, unassigned) [Example 680, (*R)-3-[[6-(1-cyanoethoxy)-4-[2-[(2,6-dimethylpyrimidin-4-yl)amino]pyrazolo[1,5-a]pyridin-5-yl]-3-pyridyl]oxy]-2,2-dimethyl-propanenitrile] | 
15 | 0.0441 | Cc1cc(-c2ccn3nc(Nc4cc(C)nc(C)n4)cc3c2)c(OC[C@@H]2CCS(=O)(=O)C2)cn1 (single isomer, unassigned) [Example 364, (*S)—N-(2,6-dimethylpyrimidin-4-yl)-5-[5-[(1,1-dioxothiolan-3-yl)methoxy]-2-methyl-4-pyridyl]pyrazolo[1,5-a]pyridin-2-amine] | 
16 |  | CC(=O)N1[C@@H]2COC[C@H]1C[C@@H](Oc1cnc(C)cc1-c1ccn3nc(Nc4ccc(=O)n(C)n4)cc3c1)C2 [Example 637, 6-((5-(5-(((1R,5S,7s)-9-acetyl-3-oxa-9-azabicyclo[3.3.1]nonan-7-yl)oxy)-2-methylpyridin-4-yl)pyrazolo[1,5-a]pyridin-2-yl)amino)-2-methylpyridazin-3(2H)-one] | 0.00642
17 | 0.116 | O=C(Nc1cc2cc(-c3cc(C(F)(F)F)ncc3OC[C@@H]3CNCCO3)ccn2n1)C1CC1 [Example 601, N-[5-[5-[[(2S)-morpholin-2-yl]methoxy]-2-(trifluoromethyl)-4-pyridyl]pyrazolo[1,5-a]pyridin-2-yl]cyclopropanecarboxamide] | 
18 | 0.0559 | Cc1cc(-c2ccn3nc(Nc4cccnn4)cc3c2)c(OC[C@@H]2CNCC(C)(C)O2)cn1 [Example 518, 5-[5-[[(2S)-6,6-dimethylmorpholin-2-yl]methoxy]-2-methyl-4-pyridyl]-N-pyridazin-3-yl-pyrazolo[1,5-a]pyridin-2-amine] | 
19 |  | CC(=O)N1[C@@H]2COC[C@H]1C[C@@H](Oc1cnc(C)cc1-c1ccn3nc(Nc4cc(C(F)(F)F)ccn4)cc3c1)C2 [Example 632, 1-((1R,5S,7s)-7-((6-methyl-4-(2-((4-(trifluoromethyl)pyridin-2-yl)amino)pyrazolo[1,5-a]pyridin-5-yl)pyridin-3-yl)oxy)-3-oxa-9-azabicyclo[3.3.1]nonan-9-yl)ethan-1-one] | 0.00121
20 |  | COc1cc(Nc2cc3cc(-c4cc(C)ncc4O[C@H]4C[C@H]5COC[C@@H](C4)N5)ccn3n2)cc(OC)c1C(=O)NC(C)C [Example 340, N-isopropyl-2,6-dimethoxy-4-[[5-[2-methyl-5-[[(1S,5R)-3-oxa-9-azabicyclo[3.3.1]nonan-7-yl]oxy]-4-pyridyl]pyrazolo[1,5-a]pyridin-2-yl]amino]benzamide] | < 0.000847
21 | 0.0376 | Cc1cc(-c2ccn3nc(Nc4cc(C)nc(C)n4)cc3c2)c(O[C@H]2CC[C@H](C(N)=O)CC2)cn1 [Example 343, 4-[[4-[2-[(2,6-dimethylpyrimidin-4-yl)amino]pyrazolo[1,5-a]pyridin-5-yl]-6-methyl-3-pyridyl]oxy]cyclohexanecarboxamide] | 
22 | 0.0116 | Cc1cc(-c2ccn3nc(NC(=O)C4CC4)cc3c2)c(O[C@H]2CCC[C@H](O)C2)cn1 (single isomer, unassigned) [Example 195, trans-N-(5-(5-(((1*S,3*S)-3-hydroxycyclohexyl)oxy)-2-methylpyridin-4-yl)pyrazolo[1,5-a]pyridin-2-yl)cyclopropanecarboxamide] | 
23 | 0.0351 | CCNC(=O)c1c(OC)cc(Nc2cc3cc(-c4cc(C)ncc4O[C@H]4CC[C@H](O)CC4)ccn3n2)cc1OC [Example 243, N-ethyl-4-[[5-[5-(4-hydroxycyclohexoxy)-2-methyl-4-pyridyl]pyrazolo[1,5-a]pyridin-2-yl]amino]-2,6-dimethoxy-benzamide] | 
24 |  | [2H]C([2H])([2H])N1[C@@H]2COC[C@H]1C[C@@H](Oc1cnc(C)cc1-c1ccn3nc(NC(=O)C4CC4)cc3c1)C2 [Example 462, N-[5-[2-methyl-5-[[(1S,5R)-9-(trideuteriomethyl)-3-oxa-9-azabicyclo[3.3.1]nonan-7-yl]oxy]-4-pyridyl]pyrazolo[1,5-a]pyridin-2-yl]cyclopropanecarboxamide] | 0.00741
25 |  | Cc1cc(-c2ccn3nc(Nc4cnn(C(F)F)c4)cc3c2)c(O[C@H]2C[C@H]3COC[C@@H](C2)N3C)cn1 [Example 116, N-(1-(difluoromethyl)-1H-pyrazol-4-yl)-5-(2-methyl-5-(((1R,5S,7s)-9-methyl-3-oxa-9-azabicyclo[3.3.1]nonan-7-yl)oxy)pyridin-4-yl)pyrazolo[1,5-a]pyridin-2-amine] | < 0.000847
26 | 0.0526 | CC(C)(C#N)COc1cnc(OCC(F)(F)F)cc1-c1ccn2nc(NC(=O)C3CC3)cc2c1 [Example 669, N-[5-[5-(2-cyano-2-methyl-propoxy)-2-(2,2,2-trifluoroethoxy)-4-pyridyl]pyrazolo[1,5-a]pyridin-2-yl]cyclopropanecarboxamide] | 
27 |  | CCN1CC[C@@H]1COc1cnc(C)cc1-c1ccn2nc(NC(=O)C3CC3)cc2c1 [Example 451, N-[5-[5-[[(2R)-1-ethylazetidin-2-yl]methoxy]-2-methyl-4-pyridyl]pyrazolo[1,5-a]pyridin-2-yl]cyclopropanecarboxamide] | 0.0182
28 | 0.1 | Cc1cc(-c2ccn3nc(Nc4cc(C)nc(C)n4)cc3c2)c(OC[C@@H]2C[C@H](O)CO2)cn1 [Example 606, (3S,5S)-5-[[4-[2-[(2,6-dimethylpyrimidin-4-yl)amino]pyrazolo[1,5-a]pyridin-5-yl]-6-methyl-3-pyridyl]oxymethyl]tetrahydrofuran-3-ol] | 

Source: patent US20240158392A1 (Janssen Biotech, Inc., priority 2021, published 2024)
